The target in the assay is T1, androgen receptor (Homo sapiens, UniProt P10275).
T1 sequence (P10275 1-920 Q868H): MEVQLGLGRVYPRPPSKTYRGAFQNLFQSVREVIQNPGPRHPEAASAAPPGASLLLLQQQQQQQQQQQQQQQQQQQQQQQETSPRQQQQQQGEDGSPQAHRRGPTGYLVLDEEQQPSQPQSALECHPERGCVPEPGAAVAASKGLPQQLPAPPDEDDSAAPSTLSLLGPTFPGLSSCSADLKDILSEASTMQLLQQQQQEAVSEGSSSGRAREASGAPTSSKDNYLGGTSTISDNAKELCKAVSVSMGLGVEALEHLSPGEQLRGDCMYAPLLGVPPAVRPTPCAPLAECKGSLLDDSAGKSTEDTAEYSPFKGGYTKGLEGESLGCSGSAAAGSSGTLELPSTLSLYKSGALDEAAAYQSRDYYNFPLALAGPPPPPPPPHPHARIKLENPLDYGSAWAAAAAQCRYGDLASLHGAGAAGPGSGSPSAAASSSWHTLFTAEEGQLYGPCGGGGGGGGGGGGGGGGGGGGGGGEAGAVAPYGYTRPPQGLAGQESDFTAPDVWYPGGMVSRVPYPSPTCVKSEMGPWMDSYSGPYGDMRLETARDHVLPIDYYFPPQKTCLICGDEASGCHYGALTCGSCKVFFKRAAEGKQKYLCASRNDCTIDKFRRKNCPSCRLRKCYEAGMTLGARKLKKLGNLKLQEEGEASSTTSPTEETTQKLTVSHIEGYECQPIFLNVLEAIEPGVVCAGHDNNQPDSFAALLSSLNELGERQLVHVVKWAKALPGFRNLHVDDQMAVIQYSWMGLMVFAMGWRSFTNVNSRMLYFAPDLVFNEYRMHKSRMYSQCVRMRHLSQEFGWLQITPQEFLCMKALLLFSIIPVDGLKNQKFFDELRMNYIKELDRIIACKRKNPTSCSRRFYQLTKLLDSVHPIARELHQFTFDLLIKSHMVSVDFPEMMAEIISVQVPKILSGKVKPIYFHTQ
In words: AR Antagonist Cell Assay (MMTV-luciferase reporter, DHT-induced). The conditions noted are these: MDA-MB453-MMTV clone 54-19 cells, 100 pM DHT, 17 hr. It counts as cell-based. In short, it runs like this:
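Stably transfected MDA-MB453 cells carrying an ARE-containing MMTV promoter–firefly luciferase reporter, pretreated 30 min with compound at 10 uM or 1 uM in 1% charcoal-treated serum medium. Then stimulated with 100 pM DHT for 17 hr at 37° C. and luminescence read; expressed as % inhibition of DHT-induced signal.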

Bounds are passed on as bounds.

The term IC50 denotes the concentration needed to halve the response being measured. In turn, `O=c1cc(C(F)(F)F)c2cc(S(=O)(=O)NC3CCCC3)ccc2[nH]1` [Example 120, 2-Oxo-4-trifluoromethyl-1,2-dihydroquinoline-6-sulfonic acidcyclopentylamide] returned an IC50 of 820 nM. `CC(C)CCNS(=O)(=O)c1ccc2[nH]c(=O)cc(C(F)(F)F)c2c1` [Example 121, 2-Oxo-4-trifluoromethyl-1,2-dihydroquinoline-6-sulfonic acid(3-methylbutyl)amide] showed an IC50 of 280 nM. `CC(C)(C)CCNS(=O)(=O)c1ccc2[nH]c(=O)cc(C(F)(F)F)c2c1` [Example 122, 2-Oxo-4-trifluoromethyl-1,2-dihydroquinoline-6-sulfonic acid(3,3-dimethylbutyl)amide] showed an IC50 of 1030 nM. The same measure for `O=c1cc(C(F)(F)F)c2cc(S(=O)(=O)NCC3CCCCC3)ccc2[nH]1` [Example 123, 2-Oxo-4-trifluoromethyl-1,2-dihydroquinoline-6-sulfonic acidcyclohexylmethylamide]: 8510 nM.

`Cc1ccccc1CNS(=O)(=O)c1ccc2[nH]c(=O)cc(C(F)(F)F)c2c1` [Example 124, 2-Oxo-4-trifluoromethyl-1,2-dihydroquinoline-6-sulfonic acid2-methylbenzylamide] returned an IC50 of 4610 nM. Compared with the last compound, the IC50 is about 1.8-fold lower. On to `C[C@@H](NS(=O)(=O)c1ccc2[nH]c(=O)cc(C(F)(F)F)c2c1)c1ccccc1` [Example 125, 2-Oxo-4-trifluoromethyl-1,2-dihydroquinoline-6-sulfonic acid(1-phenylethyl)amide], for which the IC50 was 2940 nM. `O=c1cc(C(F)(F)F)c2cc(S(=O)(=O)NC3CCCCCC3)ccc2[nH]1` [Example 126, 2-Oxo-4-trifluoromethyl-1,2-dihydroquinoline-6-sulfonic acidcycloheptylamide] gave an IC50 of 2930 nM. Regarding `CC(C)OCCCNS(=O)(=O)c1ccc2[nH]c(=O)cc(C(F)(F)F)c2c1` [Example 127, 2-Oxo-4-trifluoromethyl-1,2-dihydroquinoline-6-sulfonic acid(3-isopropoxypropyl)amide], the IC50 was found to be 1600 nM. The same measure for `O=c1cc(C(F)(F)F)c2cc(S(=O)(=O)NCCc3ccccc3)ccc2[nH]1` [Example 128, 2-Oxo-4-trifluoromethyl-1,2-dihydroquinoline-6-sulfonic acidphenethylamide]: 2650 nM; for `O=c1cc(C(F)(F)F)c2cc(S(=O)(=O)NCc3ccc(F)cc3)ccc2[nH]1` [Example 129, 2-Oxo-4-trifluoromethyl-1,2-dihydroquinoline-6-sulfonic acid4-fluorobenzylamide]: greater than 10000 nM; for `O=c1cc(C(F)(F)F)c2cc(S(=O)(=O)NC3CCc4ccccc43)ccc2[nH]1` (stereo not shown) [Example 130, 2-Oxo-4-trifluoromethyl-1,2-dihydroquinoline-6-sulfonic acidindan-1-ylamide]: 1030 nM. `CC(CNS(=O)(=O)c1ccc2[nH]c(=O)cc(C(F)(F)F)c2c1)c1ccccc1` (stereo not shown) [Example 131, 2-Oxo-4-trifluoromethyl-1,2-dihydroquinoline-6-sulfonic acid(2-phenylpropyl)amide] showed an IC50 of 350 nM. Consider `O=c1cc(C(F)(F)F)c2cc(S(=O)(=O)NCCC3=CCCCC3)ccc2[nH]1` [Example 132, 2-Oxo-4-trifluoromethyl-1,2-dihydroquinoline-6-sulfonic acid(2-cyclohex-1-enylethyl)amide], for which the IC50 amounted to 210 nM. With `O=c1cc(C(F)(F)F)c2cc(S(=O)(=O)NCCc3cccs3)ccc2[nH]1` [Example 133, 2-Oxo-4-trifluoromethyl-1,2-dihydroquinoline-6-sulfonic acid(2-thiophen-2-ylethyl)amide] the figure was 1900 nM. `CN1CCCC1CCNS(=O)(=O)c1ccc2[nH]c(=O)cc(C(F)(F)F)c2c1` (stereo not shown) [Example 134, 2-Oxo-4-trifluoromethyl-1,2-dihydroquinoline-6-sulfonic acid[2-(1-methylpyrrolidin-2-yl)ethyl]amide] registered an IC50 greater than 10000 nM. For `COc1ccccc1CCNS(=O)(=O)c1ccc2[nH]c(=O)cc(C(F)(F)F)c2c1` [Example 135, 2-Oxo-4-trifluoromethyl-1,2-dihydroquinoline-6-sulfonic acid[2-(2-methoxyphenyl)ethyl]amide], the IC50 stood at 170 nM. This counts as sub-micromolar. The same measure for `CCOc1ccccc1CNS(=O)(=O)c1ccc2[nH]c(=O)cc(C(F)(F)F)c2c1` [Example 136, 2-Oxo-4-trifluoromethyl-1,2-dihydroquinoline-6-sulfonic acid2-ethoxybenzylamide]: 580 nM; for `Cc1ccc(F)cc1CNS(=O)(=O)c1ccc2[nH]c(=O)cc(C(F)(F)F)c2c1` [Example 137, 2-Oxo-4-trifluoromethyl-1,2-dihydroquinoline-6-sulfonic acid5-fluoro-2-methylbenzylamide]: 3760 nM; for `O=c1cc(C(F)(F)F)c2cc(S(=O)(=O)NCc3cccc(Cl)c3)ccc2[nH]1` [Example 138, 2-Oxo-4-trifluoromethyl-1,2-dihydroquinoline-6-sulfonic acid3-chlorobenzylamide]: greater than 10000 nM.

As for `O=c1cc(C(F)(F)F)c2cc(S(=O)(=O)NCc3c(F)cccc3F)ccc2[nH]1` [Example 139, 2-Oxo-4-trifluoromethyl-1,2-dihydroquinoline-6-sulfonic acid2,6-difluorobenzylamide], the IC50 amounted to 2980 nM. For `O=c1cc(C(F)(F)F)c2cc(S(=O)(=O)NCc3ccc(F)cc3Cl)ccc2[nH]1` [Example 140, 2-Oxo-4-trifluoromethyl-1,2-dihydroquinoline-6-sulfonic acid2-chloro-4-fluorobenzylamide], 5650 nM corresponded to half-maximal inhibition (IC50). The same measure for `O=c1cc(C(F)(F)F)c2cc(S(=O)(=O)NCc3cccc(Cl)c3F)ccc2[nH]1` [Example 141, 2-Oxo-4-trifluoromethyl-1,2-dihydroquinoline-6-sulfonic acid3-chloro-2-fluorobenzylamide]: greater than 10000 nM. With `O=c1cc(C(F)(F)F)c2cc(S(=O)(=O)NCc3c(F)cccc3Cl)ccc2[nH]1` [Example 142, 2-Oxo-4-trifluoromethyl-1,2-dihydroquinoline-6-sulfonic acid2-chloro-6-fluorobenzylamide], the IC50 was 2390 nM.

In turn, `CSc1ccccc1CNS(=O)(=O)c1ccc2[nH]c(=O)cc(C(F)(F)F)c2c1` [Example 143, 2-Oxo-4-trifluoromethyl-1,2-dihydroquinoline-6-sulfonic acid2-methylsulfanylbenzylamide] registered an IC50 of 840 nM.

As to `Cc1cccc(Cl)c1CNS(=O)(=O)c1ccc2[nH]c(=O)cc(C(F)(F)F)c2c1` [Example 144, 2-Oxo-4-trifluoromethyl-1,2-dihydroquinoline-6-sulfonic acid2-chloro-6-methylbenzylamide], inhibition was half-maximal at 5530 nM (IC50).

The compound `Cc1ccc(CNS(=O)(=O)c2ccc3[nH]c(=O)cc(C(F)(F)F)c3c2)c(F)c1F` [Example 145, 2-Oxo-4-trifluoromethyl-1,2-dihydroquinoline-6-sulfonic acid2,3-difluoro-4-methylbenzylamide] showed an IC50 greater than 10000 nM. Turning to `O=c1cc(C(F)(F)F)c2cc(S(=O)(=O)NCc3cc(Cl)ccc3F)ccc2[nH]1` [Example 146, 2-Oxo-4-trifluoromethyl-1,2-dihydroquinoline-6-sulfonic acid5-chloro-2-fluorobenzylamide], the IC50 was 6540 nM. The same measure for `O=c1cc(C(F)(F)F)c2cc(S(=O)(=O)NCCc3c[nH]c4ccccc34)ccc2[nH]1` [Example 147, 2-Oxo-4-trifluoromethyl-1,2-dihydroquinoline-6-sulfonic acid[2-(1H-indol-3-yl)ethyl]amide]: 260 nM; for `O=c1cc(C(F)(F)F)c2cc(S(=O)(=O)N[C@H]3[C@@H]4CC[C@@H](C4)[C@H]3CO)ccc2[nH]1` [Example 148, 2-Oxo-4-trifluoromethyl-1,2-dihydroquinoline-6-sulfonic acid(3-hydroxy-methylbicyclo[2.2.1]hept-2-yl)]: 2260 nM. With `COc1cc(CNS(=O)(=O)c2ccc3[nH]c(=O)cc(C(F)(F)F)c3c2)cc(OC)c1` [Example 149, 2-Oxo-4-trifluoromethyl-1,2-dihydroquinoline-6-sulfonic acid3,5-dimethoxybenzylamide], the IC50 was greater than 10000 nM. For the compound `CC(C)(Cc1ccc(F)cc1)NS(=O)(=O)c1ccc2[nH]c(=O)cc(C(F)(F)F)c2c1` [Example 150, 2-Oxo-4-trifluoromethyl-1,2-dihydroquinoline-6-sulfonic acid[2-(4-fluorophenyl)-1,1-dimethylethyl]amide], half-maximal inhibition (IC50) required 1830 nM.

Source of the values: US7009052B2, “Sulfonamide derivatives” (Warner Lambert Company LLC, priority 2003, dated 2006).
